One assay relates to C2C12 myotubes. The experiment in a line: IL-6 expression and release and AMPK phosphorylation in cultured C2C12 myotubes. It counts as cell-based. Conditions: 100 nM of each lipid mediator vs vehicle. On the procedure:
C2C12 myoblasts were maintained in DMEM containing 10% FBS. Differentiation to myotubes was initiated by addition of DMEM containing 2% horse serum. The experiment was conducted 5 days after the addition of the differentiation media. Immediately prior to the commencement of experiments fresh media was added to the cells. Then vehicle or PDX (10, 100, and 1000 nM) was added to the appropriate wells. 30 and 120 minutes after the addition of PDX media was collected and frozen for IL-6 quantification and cells were washed in ice cold PBS. For extraction of mRNA cells were then lysed and scraped in 300 μl of RLT buffer (QIAGEN). For examination of AMPK activity cells were lysed and scraped in 200 μl of ice cold lysis buffer containing 50 mM HEPES pH7.5, 150 mM NaCl, 1 mM EGTA, 20 mM b-glycerophosphate, 1% NP40, 10 mM NaF, 2 mM Na3VO4, 1× protease inhibitor cocktail (Sigma).
Snap frozen gastrocnemius muscle and liver from mice were pulverized in liquid nitrogen then lysed overnight at 4° C. in the lysis buffer described for the C2C12 myotube experiments. Immunoblotting of myotube, macrophage, liver and muscle lysates was then performed as previously described^5. Briefly, 50 ug of protein was loaded onto a 7.5% acrylamide gel, subjected to SDS-PAGE then transferred onto nitrocellulose membranes. Membranes were then blocked and probed with the appropriate antibodies. Antibodies for p-Akt ser473, p-JNK thr183/tyr185, JNK, p-AMPK thr172, AMPK, p-STAT-3 ser727 and STAT-3 were obtained from Cell Signaling Technology (MA, USA). Antibodies for total Akt and iNOS were from Santa Cruz Biotechnology (CA, USA) and BD Transduction Laboratories™ (Canada) respectively.
RNA was extracted from C2C12 myotubes using an RNeasy® mini kit from QIAGEN. RNA from homogenized liver tissue was extracted using an RNeasy® fibrous tissue mini kit from QIAGEN. RNA was then reverse transcribed to cDNA using the high-capacity cDNA reverse transcription kit from applied biosystems. Real-time PCR for Ppargc1, Pck1, G6Pc, and GAPDH was then performed using Taqman assay on demand probes and primers from Applied Biosystems in a CFX96 real-time system from BIO-RAD. The relative expression of genes of interest was then determined by normalization to the housekeeping gene GAPDH using the comparative CT method for relative gene expression^30.
Chemokines and cytokines were quantified in macrophage media, or mouse plasma using the MILLIPLEX™ MAP mouse cytokine/chemokine kit (Millipore Corporation, MA, USA). Nitrite accumulation in media was determined by Greiss assay as previously described^25. Plasma insulin levels were assessed by RIA (Linco, MI, USA). FFA were measured using an enzymatic colorimetric assay (Wako Chemicals, VA, USA). Skeletal muscle and liver IL-6 were quantified using the mouse IL-6 ELISA kit from R&D systems. Total plasma adiponectin was determined using the ELISA from ALPCO.

A further assay has as its system T37i brown adipocytes. The experiment in a line: IL-6 release from cultured brown adipocytes. In kind it is cell-based. Conditions: norepinephrine 1 μM as adrenergic stimulus. An excerpt:
Since brown adipose tissue was recently shown to regulate glucose homeostasis via secretion of IL-6^20 we also examined whether PDX might raise circulating IL-6 by stimulating brown fat.

The source of these data is patent US9782379B2, “Use of protectin DX for the stimulation of muscular IL-6 secretion” (Universite Laval, priority 2013, dated 2017).

On to `CC/C=C\C[C@H](O)\C=C/C=C/C=C/[C@H](O)C/C=C\C/C=C\CCC(=O)O` [PD1, 10R,17S-dihydroxy-docosa-4Z,7Z,11E,13E,15Z,19Z-hexaenoic acid, reference compound], for which the “IL-6 release from muscle cells” value in the assay on C2C12 myotubes is on record as “not present”.
Consider `CCCCCC(O)/C=C/C=C\C=C\[C@@H](O)C/C=C\CCCC(=O)O` (stereo partly drawn) [8(S),17(S)DiHETE, 8S,15S-dihydroxy-5Z,9E,11Z,13E-eicosatetraenoic acid, reference compound], for which the “IL-6 release from muscle cells” value in the assay with C2C12 myotubes was “not present”.
Regarding `CC/C=C\CC(O)/C=C/C=C\C=C\C=C\C(O)[C@@H](O)C/C=C\CCC(=O)O` (stereo partly drawn) [RvD1, 7S,8R,17S-trihydroxy-4Z,9E,11E,13Z,15E,19Z-docosahexaenoic acid, reference compound], the “IL-6 release from muscle cells” value with C2C12 myotubes is on record as “not present”.
In the case of `NC[C@H](O)c1ccc(O)c(O)c1` [norepinephrine, reference compound], in the assay on T37i brown adipocytes, the “release of IL-6” value was “released IL-6”.
